# Measured values taken from ChEMBL document CHEMBL1154488, “Synthesis, structure elucidation and antibacterial evaluation of new steroidal -5-en-7-thiazoloquinoxaline derivatives” (2008).
# What was measured:
# Assay type in all cases: functional
# Escherichia coli [1] = assay: Antibacterial activity against Escherichia coli after 18 hrs by disk diffusion method
# Escherichia coli [2] = assay: Antibacterial activity against Escherichia coli after 18 hrs by macrodilution test
# Escherichia coli [3] = assay: Antibacterial activity against Escherichia coli at 30 ug/disk after 18 hrs by disk diffusion method; details: read-out: IZ
Structure (SMILES),MIC (Escherichia coli [2]) [µg/mL],inhibition zone (IZ) (Escherichia coli [1]) [mm],zone of inhibition at 30 µg/disc (Escherichia coli [3]) [mm]
Clc1nc2ccccc2nc1Cl,512,6.2,
CC(C)CCC[C@@H](C)[C@H]1CC[C@H]2[C@@H]3/C(=N/NC(N)=S)C=C4CCCC[C@]4(C)[C@H]3CC[C@]12C,256,9.8,
O=C(N[C@H](CO)[C@H](O)c1ccc([N+](=O)[O-])cc1)C(Cl)Cl [CHLORAMPHENICOL],32,,20
CC(C)CCC[C@@H](C)[C@H]1CC[C@H]2[C@@H]3CC=C4C[C@@H](O)CC[C@]4(C)[C@H]3CC[C@]12C [CHOLESTEROL],512,5.8,

# The remaining compounds from weak to strong by MIC (Escherichia coli [2]), led by results:
MIC (Escherichia coli [2]) [µg/mL],Structure (SMILES),inhibition zone (IZ) (Escherichia coli [1]) [mm],zone of inhibition at 30 µg/disc (Escherichia coli [3]) [mm]
128,CC(=O)O[C@H]1CC[C@@]2(C)C(=C/C(=N\NC(N)=S)[C@H]3[C@@H]4CC[C@H]([C@H](C)CCCC(C)C)[C@@]4(C)CC[C@@H]32)C1,13.2,
128,CC(C)CCC[C@@H](C)[C@H]1CC[C@H]2[C@@H]3/C(=N/Nc4nc5nc6ccccc6nc5s4)C=C4CCCC[C@]4(C)[C@H]3CC[C@]12C,14,
64,CC(=O)O[C@H]1CC[C@@]2(C)C(=C/C(=N\Nc3nc4nc5ccccc5nc4s3)[C@H]3[C@@H]4CC[C@H]([C@H](C)CCCC(C)C)[C@@]4(C)CC[C@@H]32)C1,20.8,
64,CC(C)CCC[C@@H](C)[C@H]1CC[C@H]2[C@@H]3/C(=N/NC(N)=S)C=C4C[C@@H](Cl)CC[C@]4(C)[C@H]3CC[C@]12C,14.8,
32,CC(C)CCC[C@@H](C)[C@H]1CC[C@H]2[C@@H]3/C(=N/Nc4nc5nc6ccccc6nc5s4)C=C4C[C@@H](Cl)CC[C@]4(C)[C@H]3CC[C@]12C,22.4,
